Experimental data: US5935972A, “Benzofuran derivatives as tachykinin antagonists” (Glaxo Group Limited, priority 1997, dated 1999)
Structures can show the parent of a compound that is named as a salt.

System: radiation-induced emesis
Experiment: radiation-induced emesis in the ferret
Assay type: in vivo
Details: whole body irradiation 2 Grey, dose 0.3 mg/kg s.c. immediately after irradiation
Method: In this model of emesis the onset of retching and vomiting occurs approximately 20 minutes after whole body irradiation (2 Grey.ident.200 Rads). The test compound is administered (e.g. i.p, p.o., i.v., s.c) immediately after irradiation and its effect on emesis determined by comparison with appropriate controls.

SMILES: Cc1nnnn1-c1cc(CN[C@H]2CCCN[C@H]2c2ccccc2)c2occc2c1 [Example 1, [5-(5-Methyl-tetrazol-1-yl)-benzofuran-7-ylmethyl]-(2S-phenyl-piperidin-3S-yl)-amine dihydrochloride]
- inhibition of radiation-induced emesis: inhibited radiation-induced emesis
